Results as given in paper PMC12575728, “Galactose-modified small molecule modulator targets RORα to enhance circadian rhythm and alleviate periodontitis-associated alveolar bone loss” (Bone Research, 2025).

Columns and labels:
[1] = Body weight changes in mice after IP administration; format: in vivo; details: 10 and 50 mg/kg, 7 days
Experimental: After U2OS cells were treated with various concentrations (0 ~ 50 μM) of SR1078,
Body weight changes (%) in […]

PER2::LUC mice = experiment: Real-time bioluminescence recording of PER2::LUC mice; format: in vivo; details: 10 mg/kg IP at ZT0
Experimental: PER2::LUC mice at ages of 2–3 months-old were housed in 12:12 light-dark conditions for two weeks before the experiments.[33] Gala-SR and SR1078 (10 mg/kg) were dissolved in DMSO and I.P.injected into mouse at ZT0. After 1 h, D-luciferin was I.P. injected into mouse for another 0.5 h. Mice were then imaged on IVIS 673 Lumina III system and analyzed with live imaging software.

RORα = target: T1, RORα (Homo sapiens, UniProt P35398); experiment: G6Pase and FGF21 mRNA in HEK293T cells after RORα knockdown by siRNA; format: cell-based; details: 5 μmol/L, 24 h
T1 construct: HEK293T cells co-transfected with a full-length RORα gene and a luciferase reporter gene; expressed in transfected cells; host or cells: HEK293T
T1 sequence (P35398 1-523): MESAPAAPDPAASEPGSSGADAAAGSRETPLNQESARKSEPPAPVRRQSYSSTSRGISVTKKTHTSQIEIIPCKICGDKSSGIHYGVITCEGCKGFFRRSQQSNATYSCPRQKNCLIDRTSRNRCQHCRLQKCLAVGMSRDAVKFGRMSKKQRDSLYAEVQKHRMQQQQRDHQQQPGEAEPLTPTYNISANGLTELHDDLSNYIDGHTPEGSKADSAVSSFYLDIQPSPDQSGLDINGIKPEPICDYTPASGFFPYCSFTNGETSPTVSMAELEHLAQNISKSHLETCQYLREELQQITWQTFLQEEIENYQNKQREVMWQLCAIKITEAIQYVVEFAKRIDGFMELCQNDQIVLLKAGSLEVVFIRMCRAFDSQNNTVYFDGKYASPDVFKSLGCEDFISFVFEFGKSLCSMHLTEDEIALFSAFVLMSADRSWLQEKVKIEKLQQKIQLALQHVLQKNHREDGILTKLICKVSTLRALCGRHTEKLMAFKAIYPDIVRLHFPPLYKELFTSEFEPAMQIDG
Experimental: RNA from liver, periodontal tissues and cell samples was prepared as previously described. Total RNA (1 ug) was synthesized into cDNA using […] (Vazyme). mRNA expression levels were normalized to GAPDH. Relative expression levels and enrichment contents were calculated using the comparative Ct Method. Primer information is detailed in Data file S1.

RORγ = target: T2, RORγ (Homo sapiens, UniProt P51449); experiment: Luciferase reporter assay (G6Pase or FGF21 promoter) in HEK293T cells cotransfected with RORγ; format: cell-based; details: 5 μmol/L; for luminescence intensity of G6Pase and FGF21 reporter genes: compared to DMSO
T2 construct: expressed in transfected cells; host or cells: HEK293T
T2 sequence (P51449 1-518): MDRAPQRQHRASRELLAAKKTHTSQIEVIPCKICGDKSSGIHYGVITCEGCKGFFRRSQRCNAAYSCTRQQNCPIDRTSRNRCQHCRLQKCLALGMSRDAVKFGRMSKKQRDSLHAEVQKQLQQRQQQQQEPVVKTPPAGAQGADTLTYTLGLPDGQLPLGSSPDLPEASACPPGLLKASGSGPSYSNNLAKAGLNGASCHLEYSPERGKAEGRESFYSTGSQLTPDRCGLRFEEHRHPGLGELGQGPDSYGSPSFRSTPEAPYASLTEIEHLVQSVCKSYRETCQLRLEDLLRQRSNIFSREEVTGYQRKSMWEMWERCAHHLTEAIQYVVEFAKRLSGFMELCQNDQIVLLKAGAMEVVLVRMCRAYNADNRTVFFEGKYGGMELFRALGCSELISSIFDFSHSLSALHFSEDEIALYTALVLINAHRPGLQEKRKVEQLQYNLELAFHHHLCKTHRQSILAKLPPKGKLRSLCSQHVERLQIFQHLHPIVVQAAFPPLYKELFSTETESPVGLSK
Description: HEK293T cells were transfected with Lipofectamine 8000 (ThermoFisher) strictly following the manufacturer’s instructions. Cotransfected HEK293T cells with RORα or RORγ plasmid and a reporter consisting of the G6Pase or FGF21 promoters upstream of a luciferase reporter gene. […] The Lumicycle instrument detects luminescence and records the numerical value.

BMAL1 = BMAL1 immunofluorescence in synchronized U2OS cells; format: cell-based, human; details: 5 µmol/L
Experimental: U2OS cells were seeded on coverslips and treated with drugs for 24 h. After treatment, the cells were washed 3 times with PBS and fixed with 4% paraformaldehyde at room temperature for 15 min. The cells were then permeabilized with 0.1% Triton X-100 (diluted in PBS) and blocked with 5% BSA (diluted in PBS) at room temperature for 30 min. Primary antibodies were incubated overnight at 4 °C. The next day, the cells were washed 3 times with PBST and incubated with Cy3-conjugated Affinipure Goat Anti-Rabbit IgG(H + L) secondary antibody (1:200) at room temperature for one hour, with DAPI added to stain the nuclei. After washing 3 times with PBST, images were captured using a laser confocal microscope (Nikon A1-Si).

[2] = tested on: Per2-dLuc and Bmal1-dLuc U2OS cells; experiment: Real-time bioluminescence monitoring of Per2-dLuc and Bmal1-dLuc U2OS cells; format: cell-based, human; details: for dose dependence of the enhancing effect on the amplitude of BMAL1: Bmal1-dLuc U2OS cells, 1-10 μM; for fluctuation degree (amplitude) of bioluminescence intensity / period or phase of the bioluminescence / overall bioluminescence levels: Bmal1-dLuc and Per2-dLuc U2OS cells, 2 μmol/L; for overall bioluminescence levels: vs DMSO
Experimental: Two clonal circadian reporter cell lines, Bmal1-dLuc and Per2-dLuc, were established and used in this study.[36] These two cell lines display robust cellular rhythmicity with near anti-phasic oscillation of bioluminescence expression. The lentivirus preparation, transduction of U2OS cells and selection of the knockout candidates with puromycin (at […] concentration) were performed using a previously published protoco.[37] LumiCycle (Actimetrics, Inc., Evanston, IL) detect for U2OS cells stably expressing Bmal1-dLuc and Per2-dLuc cells were seeded on an opaque 24-well plate. When the cells are full, which were treated with dexamethasone (DEX) (100 nmol/L final) for 2 h for resetting, 2 h later, the media of cells were replaced with bioluminescence recording media having DMEM culture medium (Gibco 21063029, 500 mL), 70 mL 12% FBS. Luciferin (0.1 mmol/L final) was added fresh to the bioluminescence media. Molecules at determined concentrations were supplied to the recording media (final DMSO concentration is 0.1%).

C57 mice = experiment: Mouse locomotor assay; format: in vivo; details: 10 mg/kg IP at ZT11, D:D, compared to DMSO
Experimental: WT C57BL/6 J mice at the age of 2 months old were entrained under a 12-h /12-h […] at 24 °C for 2 weeks.[36] One week after mouse clock synchronization to the ambient light/dark cycle, SR1078, Gala-SR or dimethyl sulfoxide (DMSO) was dissolved in saline and intraperitoneally injected (10 mg/kg) into mice 1 h before light off (ZT11). […] SR1078, Gala-SR or DMSO was injected again 24 h later. After 2 weeks of continuous recording, locomotor activity was analyzed with ClockLab software (Actimetrics) following the procedures described previously34.

SMILES	systemic toxicity (body weight changes) [1]	liver luciferase signal (PER2::LUC mice)	activation of G6Pase and FGF21 transcription after RORα knockdown (RORα)	luminescence intensity of G6Pase and FGF21 reporter genes (RORγ)	expression of BMAL1 (immunofluorescence) (BMAL1)	dose dependence of the enhancing effect on the amplitude of BMAL1 [2]	fluctuation degree (amplitude) of bioluminescence intensity [2]	period or phase of the bioluminescence [2]	overall bioluminescence levels [2]	activity rhythm (amplitude) and total activity (C57 mice)	difference between Gala-SR and SR1078 in RORγ reporter luminescence (RORγ)	circadian rhythm amplitude, with β-glycosidase ([2]; Gala-SR + β-galactosidase (205 U/mg))	circadian rhythm amplitude, with β-glycosidase inhibitor ([2]; Gala-SR + β-galactosidase inhibitor (26 mmol/L))
O=C(Nc1ccc(C(O)(C(F)(F)F)C(F)(F)F)cc1)c1ccc(C(F)(F)F)cc1 [SR1078, reference compound]	dose-dependent toxicity	induced within 0.5 h of treatment	markedly hampered the activation	significantly enhanced the luminescence intensity	enhance the expression of BMAL1	difficult to further promote its efficacy	significant augmentation	neither SR1078 nor Gala-SR treatment induced any obvious alterations	significantly elevated	significantly increased	–	–	–
O=C(Nc1ccc(C(OCO[C@@H]2O[C@H](CO)[C@H](O)[C@H](O)[C@H]2O)(C(F)(F)F)C(F)(F)F)cc1)c1ccc(C(F)(F)F)cc1 [Gala-SR]	reduced systematic toxicity	induced within 0.5 h of treatment	markedly hampered the activation	significantly enhanced the luminescence intensity	enhance the expression of BMAL1	increases with the dose	further enhanced	neither SR1078 nor Gala-SR treatment induced any obvious alterations	superior efficacy than SR1078	significantly increased	no significant difference	augmentation	suppression
